In patent US11219621B2, “Methods for treating immunodeficiency disease” (X4 Pharmaceuticals, Inc., priority 2015, dated 2022):

What was measured:
BLT1 = molecular target: T1, BLT1 (Homo sapiens, UniProt Q15722); conditions: cited from earlier work
T1 construct: expressed in transfected cells

[1] = Clinical studies, oral administration to healthy volunteers and HIV patients
[2] = tested on: granulocyte-macrophage (CFU-GM), erythroid (BFU-E) and multipotential (CFU-GEMM) progenitor cells; experiment: Progenitor/stem cell mobilization in mice after single subcutaneous injection; type: in vivo, C3H/HeJ mice; conditions: for BFU (BFU-E), Mean / GEMM (CFU-GEMM), Mean / GM (CFU-GM), Mean: progenitor cells per mL of blood
Method: All experiments were performed in […] mice. […] The progenitors were stimulated to form colonies in vitro with the combination of 1 U/mL rhu EPO, 50 ng/mL rmu SLF, 5% vol/vol pokeweed mitogen mouse spleen cell conditioned medium (PWMSCM), and 0.1 mM hemin. Plates were scored 7 days after incubation at 37° C., 5% CO2, lowered […] and in a humidified chamber.
In the first experiment (data shown in Table 6), mice received a dose of 5 mg/kg- and the number of progenitors in the circulating blood was measured at various time points (0.25, 0.5, 1, 2, 6 and 24 hours).

CXCR7 = molecular target: T2, CXCR7 (Homo sapiens, UniProt P25106); set-up: Inhibition of SDF-1α binding to CXCR7: dose or concentration left out as unconfirmed; conditions: cited from earlier work
T2 construct: expressed in transfected cells
T2 sequence (P25106 whole entry): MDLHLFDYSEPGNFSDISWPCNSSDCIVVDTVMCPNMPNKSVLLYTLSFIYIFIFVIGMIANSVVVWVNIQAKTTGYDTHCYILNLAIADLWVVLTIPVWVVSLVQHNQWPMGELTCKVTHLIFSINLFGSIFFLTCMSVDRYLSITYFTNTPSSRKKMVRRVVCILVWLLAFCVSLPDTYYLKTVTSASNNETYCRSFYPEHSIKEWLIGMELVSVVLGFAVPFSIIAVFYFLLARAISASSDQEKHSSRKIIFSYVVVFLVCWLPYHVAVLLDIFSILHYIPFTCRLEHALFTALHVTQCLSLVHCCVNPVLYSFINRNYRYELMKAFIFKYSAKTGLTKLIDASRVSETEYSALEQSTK

[3] = tested on: white blood cells (WBC), neutrophils, lymphocytes; experiment: Hematologic effects of a single oral dose in the male Beagle dog; type: in vivo
Method: Three fasted male Beagle dogs received a single dose of […]-001 in aqueous solution by oral gavage at dose levels of 5, 15, and 35 mg/kg (1 dog per dose level) in a volume of 1 mL/kg. Blood samples (approximately 3 mL each) were obtained at multiple timepoints from each animal by direct venipuncture of the jugular vein and collected using Vacutainer® tubes containing K3EDTA as the anticoagulant. […] Blood samples were stored at ambient room temperature prior to automated differential analysis Body weights were determined prior to dosing on the day of test article administration. […] Hematology parameters included the following: White Blood Cell Count (WBC) Differential white blood cell count (absolute and relative) • Neutrophil • Lymphocytes • Monocytes • Eosinophils • Basophils • Large Unstained Cells (LUC) • Hematocrit (HCT) • Hemoglobin (HGB) • Mean Corpuscular Hemoglobin (MCH) • Mean Corpuscular Hemoglobin Concentration (MCHC) • Mean Corpuscular Volume (MCV) • Platelet Count (PLT) • Red Blood Cell Count (RBC) Results

CXCR3 = molecular target: T3, CXCR3 (Homo sapiens, UniProt P49682); conditions: cited from earlier work
T3 construct: expressed in transfected cells
T3 sequence (P49682 1-368): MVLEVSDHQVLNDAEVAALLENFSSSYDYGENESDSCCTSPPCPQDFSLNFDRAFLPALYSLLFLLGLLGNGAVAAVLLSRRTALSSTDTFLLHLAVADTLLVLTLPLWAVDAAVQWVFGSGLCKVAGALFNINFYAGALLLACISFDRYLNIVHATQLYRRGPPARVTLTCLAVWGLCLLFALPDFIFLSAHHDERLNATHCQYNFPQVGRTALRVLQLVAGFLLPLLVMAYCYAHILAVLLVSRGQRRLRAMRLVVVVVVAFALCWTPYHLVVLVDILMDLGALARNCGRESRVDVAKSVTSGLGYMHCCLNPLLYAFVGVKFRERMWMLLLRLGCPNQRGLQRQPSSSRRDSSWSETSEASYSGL

[4] = Table 6, 5 mg/kg s.c., @ - 2′ (2 h)
[5] = Table 6, 5 mg/kg s.c., @ - 6′ (6 h)
[6] = Table 6, 5 mg/kg s.c., @ - 15″ ([…])
[7] = Table 6, 5 mg/kg s.c., @ - 24′ (24 h)
[8] = Table 6, 5 mg/kg s.c., @ - 30″ (0.5 h)
[9] = Table 6, 5 mg/kg s.c., @ - 60″ (1 h)
[10] = Table 7, 1 hour post-injection, 1.5 mg/kg s.c.
[11] = Table 7, 1 hour post-injection, 5 mg/kg s.c.
[12] = Table 7, 1 hour post-injection, 10 mg/kg s.c.
[13] = Table 7, 1 hour post-injection, 20 mg/kg s.c.
[14] = Table 8, 5 mg/kg s.c., @ - 2′ (2 h)
[15] = Table 8, 5 mg/kg s.c., @ - 15″ ([…])
[16] = Table 8, 5 mg/kg s.c., @ - 30″ (0.5 h)
[17] = Table 8, 5 mg/kg s.c., @ - 60″ (1 h)
[18] = time course, 5 mg/kg s.c., 30-60 min.
[19] = single oral dose 5, 15, 35 mg/kg

T1 sequence (Q15722 whole entry): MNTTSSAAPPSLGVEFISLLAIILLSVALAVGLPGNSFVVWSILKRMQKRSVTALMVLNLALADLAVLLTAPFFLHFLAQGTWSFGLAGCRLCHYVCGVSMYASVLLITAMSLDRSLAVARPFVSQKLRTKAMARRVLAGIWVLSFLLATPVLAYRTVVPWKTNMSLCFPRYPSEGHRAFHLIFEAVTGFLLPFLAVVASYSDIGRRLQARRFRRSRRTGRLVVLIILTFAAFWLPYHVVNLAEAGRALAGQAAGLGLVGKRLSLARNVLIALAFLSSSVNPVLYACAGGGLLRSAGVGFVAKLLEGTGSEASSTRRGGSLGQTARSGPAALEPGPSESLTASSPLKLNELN

Compound: NCCCCN(Cc1nc2ccccc2[nH]1)[C@H]1CCCc2cccnc21 [X4P-001]
- IC50 (BLT1; BLT1, CHO-S-LTB4, LTB4, ligand binding, read-out: IC50 AMD11070): > 50 µM
- Inhibitory effect on LTB4 binding to BLT1 (BLT1): little or no inhibitory effect
- Pharmacodynamic activity, circulating white blood cells (WBCs) ([1]; healthy volunteers and HIV patients): dose- and concentration-related changes
- Increases in WBC counts ([1]; human subjects, dose-dependent, FIG. 9): 2-3 ×
- BFU (BFU-E), Mean [2, 4]: 165.3
- GEMM (CFU-GEMM), Mean [2, 4]: 68.9
- GM (CFU-GM), Mean [2, 4]: 897.5
- BFU (BFU-E), Mean [2, 5]: 99.9
- GEMM (CFU-GEMM), Mean [2, 5]: 37.6
- GM (CFU-GM), Mean [2, 5]: 387.5
- BFU (BFU-E), Mean [2, 6]: 148.8
- GEMM (CFU-GEMM), Mean [2, 6]: 65.6
- GM (CFU-GM), Mean [2, 6]: 785.1
- BFU (BFU-E), Mean [2, 7]: 84.6
- GEMM (CFU-GEMM), Mean [2, 7]: 37.7
- GM (CFU-GM), Mean [2, 7]: 386.3
- BFU (BFU-E), Mean [2, 8]: 230.4
- GEMM (CFU-GEMM), Mean [2, 8]: 99.6
- GM (CFU-GM), Mean [2, 8]: 1273.8
- BFU (BFU-E), Mean [2, 9]: 235.1
- GEMM (CFU-GEMM), Mean [2, 9]: 103.1
- GM (CFU-GM), Mean [2, 9]: 866.0
- Nucleated Cellularity PBL-LD, Mean ([2]; Table 6 time course, 5 mg/kg s.c., @ - 2′ (2 h)): 8.29e+06 mL⁻¹
- Nucleated Cellularity PBL-LD, Mean ([2]; Table 6 time course, 5 mg/kg s.c., @ - 6′ (6 h)): 5.66e+06 mL⁻¹
- Nucleated Cellularity PBL-LD, Mean ([2]; Table 6 time course, 5 mg/kg s.c., @ - 15″ ([…])): 5.1e+06 mL⁻¹
- Nucleated Cellularity PBL-LD, Mean ([2]; Table 6 time course, 5 mg/kg s.c., @ - 24′ (24 h)): 4.31e+06 mL⁻¹
- Nucleated Cellularity PBL-LD, Mean ([2]; Table 6 time course, 5 mg/kg s.c., @ - 30″ (0.5 h)): 6.14e+06 mL⁻¹
- Nucleated Cellularity PBL-LD, Mean ([2]; Table 6 time course, 5 mg/kg s.c., @ - 60″ (1 h)): 6.92e+06 mL⁻¹
- BFU (BFU-E), Mean [2, 10]: 143.8
- GM (CFU-GM), Mean [2, 10]: 428.0
- BFU (BFU-E), Mean [2, 11]: 181.6
- GEMM (CFU-GEMM), Mean [2, 11]: 141.0
- GM (CFU-GM), Mean [2, 11]: 1119.8
- GEMM (CFU-GEMM), Mean [2, 12]: 224.4
- GM (CFU-GM), Mean [2, 12]: 1444.2
- BFU (BFU-E), Mean [2, 13]: 261.4
- GEMM (CFU-GEMM), Mean [2, 13]: 145.0
- GM (CFU-GM), Mean [2, 13]: 1314.2
- Nucleated Cellularity PBL-LD, Mean ([2]; Table 7 dose response, 1 hour post-injection, 1.5 mg/kg s.c.): 6.94e+06 mL⁻¹
- Nucleated Cellularity PBL-LD, Mean ([2]; Table 7 dose response, 1 hour post-injection, 5 mg/kg s.c.): 7.65e+06 mL⁻¹
- Nucleated Cellularity PBL-LD, Mean ([2]; Table 7 dose response, 1 hour post-injection, 10 mg/kg s.c.): 9.94e+06 mL⁻¹
- BFU (BFU-E), Mean [2, 14]: 108.5
- GEMM (CFU-GEMM), Mean [2, 14]: 62.4
- GM (CFU-GM), Mean [2, 14]: 619.6
- BFU (BFU-E), Mean [2, 15]: 188.9
- GEMM (CFU-GEMM), Mean [2, 15]: 93.8
- GM (CFU-GM), Mean [2, 15]: 588.3
- GEMM (CFU-GEMM), Mean [2, 16]: 79.0
- GM (CFU-GM), Mean [2, 16]: 705.9
- GEMM (CFU-GEMM), Mean [2, 17]: 102.2
- GM (CFU-GM), Mean [2, 17]: 761.4
- Nucleated Cellularity PBL-LD, Mean ([2]; Table 8 comparison, 5 mg/kg s.c., @ - 2′ (2 h)): 9.71e+06 mL⁻¹
- Nucleated Cellularity PBL-LD, Mean ([2]; Table 8 comparison, 5 mg/kg s.c., @ - 15″ ([…])): 8.04e+06 mL⁻¹
- Nucleated Cellularity PBL-LD, Mean ([2]; Table 8 comparison, 5 mg/kg s.c., @ - 30″ (0.5 h)): 8.28e+06 mL⁻¹
- Nucleated Cellularity PBL-LD, Mean ([2]; Table 8 comparison, 5 mg/kg s.c., @ - 60″ (1 h)): 7.34e+06 mL⁻¹
- Peak increase of BFU-E over control (saline injection) [2, 18]: 2.49-2.54 fold
- Peak increase of CFU-GEMM over control (saline injection) [2, 18]: 2.58-2.67 fold
- Peak increase of CFU-GM over control (saline injection) ([2]; time course, 5 mg/kg s.c., 30 min.): 4.21 fold
- Time of peak of nucleated cell mobilization ([2]; time course, 5 mg/kg s.c., approximately): 1-2 hours post-injection
- Number of circulating progenitors ([2]; up to a dose of 5-10 mg/kg s.c.): dose-dependently increased
- IC50 (CXCR7; CXCR7, Cf2Th.CXCR7, SDF-1α/CXCL12, ligand binding, read-out: IC50 AMD11070): > 10 µM
- Inhibitory effect on SDF-1α binding to CXCR7 (CXCR7): little or no inhibitory effect
- Inhibition of SDF-1α binding to CXCR7 (CXCR7; the maximum concentration tested): did not inhibit
- Peak elevations of WBC above baseline ([3]; 5 mg/kg dose level): 1.5 fold
- Total circulating WBC, neutrophils, and lymphocytes, increase ([3]; 5 mg/kg, all three cell counts): 1.47 × baseline
- Lymphocytes, increase ([3]; 15 mg/kg): 2.9 ×
- Neutrophils, increase ([3]; 15 mg/kg): 1.8 ×
- Lymphocytes, increase ([3]; 35 mg/kg): 1.9 ×
- Neutrophils, increase ([3]; 35 mg/kg): 2.7 ×
- Time at which increases were consistently apparent ([3]; 5, 15, and 35 mg/kg): 4 h
- Time of peak of increases ([3]; 5, 15, and 35 mg/kg, typically, occasionally earlier): ~12 h
- Peak elevations of WBC above baseline ([3]; 15 and 35 mg/kg dose levels): 1.8-2.9 fold
- WBC, neutrophil, and lymphocyte counts at 24 hours ([3]; 15 and 35 mg/kg, with evidence of return to baseline): remained elevated
- Other hematological effects [3, 19]: No other hematological effects
- Time of maximal increases in WBC [3, 19]: 4-12 hours post-dose
- IC50 (CXCR3; CXCR3, HEK293F-CXCR3-Gαq15, IP-10/CXCL10, read-out: IC50 AMD11070): > 50 µM
- Inhibitory effect on IP10 mediated calcium flux (CXCR3) (CXCR3): little or no inhibitory effect
